Here are results for 21 molecules from ChEMBL document CHEMBL4346717, “1,2,4-Triazole-quinoline/quinolone hybrids as potential anti-bacterial agents” (Eur J Med Chem, 2019).

Common to all, as to assay type: functional
In experiment [1] the test system is Escherichia coli. As to the kind of experiment: Antibacterial activity against Escherichia coli.
Experiment [2] relates to Pseudomonas aeruginosa. As to the kind of experiment: Antibacterial activity against Pseudomonas aeruginosa.
Experiment [3] deals with Staphylococcus aureus. Put plainly: Antibacterial activity against Staphylococcus aureus.
Experiment [4] deals with Staphylococcus aureus. As to the kind of experiment: Antibacterial activity against Staphylococcus aureus after 3 to 7 days by cup diffusion method.
Experiment [5] deals with Bacillus subtilis. As to the kind of experiment: Antibacterial activity against Bacillus subtilis after 3 to 7 days by cup diffusion method.
Experiment [6] deals with Escherichia coli. As to the kind of experiment: Antibacterial activity against Escherichia coli after 3 to 7 days by cup diffusion method.
For experiment [7], the system named is Pseudomonas aeruginosa. As to the kind of experiment: Antibacterial activity against Pseudomonas aeruginosa after 3 to 7 days by cup diffusion method.
Experiment [8] concerns Mycolicibacterium phlei. Put plainly: Antibacterial activity against Mycobacterium phlei clinical isolate after 3 to 7 days by cup diffusion method.
Experiment [9] relates to Aggregatibacter actinomycetemcomitans. Put plainly: Antibacterial activity against Aggregatibacter actinomycetemcomitans ATCC 29524 after 3 to 7 days by cup diffusion method.
Experiment [10] has as its system Staphylococcus aureus. As to the kind of experiment: Antibacterial activity against Staphylococcus aureus assessed as zone of inhibition at 10 mg/ml after 3 to 7 days by cup diffusion method. The note with it: read-out: IZ.
For experiment [11], the system named is Bacillus subtilis. Put plainly: Antibacterial activity against Bacillus subtilis assessed as zone of inhibition at 10 mg/ml after 3 to 7 days by cup diffusion method. The note with it: read-out: IZ.
Experiment [12] has as its system Escherichia coli. As to the kind of experiment: Antibacterial activity against Escherichia coli assessed as zone of inhibition at 10 mg/ml after 3 to 7 days by cup diffusion method. The note with it: read-out: IZ.
For experiment [13], the system named is Pseudomonas aeruginosa. As to the kind of experiment: Antibacterial activity against Pseudomonas aeruginosa assessed as zone of inhibition at 10 mg/ml after 3 to 7 days by cup diffusion method. The note with it: read-out: IZ.
Experiment [14] relates to Mycolicibacterium phlei. As to the kind of experiment: Antibacterial activity against Mycobacterium phlei clinical isolate assessed as zone of inhibition at 10 mg/ml after 3 to 7 days by cup diffusion method. The note with it: read-out: IZ.
Experiment [15] deals with Aggregatibacter actinomycetemcomitans. As to the kind of experiment: Antibacterial activity against Aggregatibacter actinomycetemcomitans ATCC 29524 assessed as zone of inhibition at 10 mg/ml after 3 to 7 days by cup diffusion method. The note with it: read-out: IZ.
[16] abbreviates: Staphylococcus aureus, read-out: MIC.
[17] abbreviates: Bacillus subtilis, read-out: MIC.
[18] abbreviates: Escherichia coli, read-out: MIC.
[19] abbreviates: Pseudomonas aeruginosa, read-out: MIC.
The mark [20] stands for this setting: Mycolicibacterium phlei, read-out: MIC.
Setting [21] is: Aggregatibacter actinomycetemcomitans, ATCC 29524, read-out: MIC.

Molecules are shown by their SMILES. In brackets after ≈: the same amount, converted by molar mass.

Take `Nn1c(S)nnc1Cn1c(=O)cc(-c2ccccc2)c2cc(Cl)ccc21`: the MIC in experiment [1], in experiment [2] and in experiment [3] was 8 to 256 µg/mL (≈ 20.8 to 667 µM) each time.
For the molecule `Cc1ccc2c(c1)c(-c1ccccc1)cc(=O)n2Cc1nnc(S)n1N`, the MIC in [1], in [2] and in experiment [3] was 8 to 256 µg/mL (≈ 22 to 704 µM) in each case.
In the case of `Cc1cccc2c(-c3ccccc3)cc(=O)n(Cc3nnc(S)n3N)c12`, the MIC in experiment [1], in experiment [2] and in experiment [3] was 8 to 256 µg/mL (≈ 22 to 704 µM) throughout.
Take `Nn1c(S)nnc1Cn1c(=O)cc(-c2ccccc2)c2ccccc21`: the MIC in experiment [1], in [2] and in experiment [3] was 8 to 256 µg/mL (≈ 22.9 to 733 µM) in each case.
As for `Nn1c(S)nnc1Cn1c(=O)cc(-c2ccccc2)c2cccc(Cl)c21`, the MIC in experiment [1], in experiment [2] and in experiment [3] was 8 to 256 µg/mL (≈ 20.8 to 667 µM) in each case.
For the molecule `CCn1cc(-c2nc(/N=C/c3ccccc3O)n[nH]2)c(=O)c2cc(Br)c(C)nc21`, the MIC in experiment [4] (setting [16]), in experiment [5] (setting [17]), in [6] (setting [18]), in [7] (setting [19]), in experiment [8] (setting [20]) and in experiment [9] (setting [21]) was 3.68 to 6.3 µM (≈ 1.67 to 2.86 µg/mL) throughout. Further, the zone of inhibition at 10000 µg/mL in experiment [10], in [11], in experiment [12], in experiment [13], in experiment [14] and in experiment [15] was 20 to 40 mm each time.
In the case of `CCn1cc(-c2nc(NC(=O)c3ccccc3)n[nH]2)c(=O)c2ccc(C)nc21`, the MIC result in experiment [4], in experiment [5], in experiment [6], in experiment [7], in experiment [8] and in experiment [9] was “>=0.031 - 32 ug ml-1” throughout. The zone of inhibition at 10000 µg/mL in experiment [10], in experiment [11], in [12], in [13], in experiment [14] and in experiment [15] was 20 to 40 mm in each case.
For the molecule `COc1cccc2c(-c3ccccc3)cc(=O)n(Cc3nnc(S)n3N)c12`, the MIC in [1], in experiment [2] and in experiment [3] was 8 to 256 µg/mL (≈ 21.1 to 675 µM) in each case.
As to `Nn1c(S)nnc1Cn1c(=O)cc(-c2ccccc2)c2ccc(Cl)cc21`, the MIC in experiment [1], in experiment [2] and in experiment [3] was 8 to 256 µg/mL (≈ 20.8 to 667 µM) throughout.
Consider `CCn1cc(-c2nc(/N=C/c3ccc(Br)cc3)n[nH]2)c(=O)c2ccc(C)nc21`, for which the MIC result in experiment [4], in experiment [5], in experiment [6], in [7], in experiment [8] and in experiment [9] was “>=0.031 - 32 ug ml-1” each time. The zone of inhibition at 10000 µg/mL in experiment [10], in experiment [11], in [12], in experiment [13], in experiment [14] and in experiment [15] was 20 to 40 mm each time.
On to `CCn1cc(-c2nc(/N=C/c3ccc(OC)cc3)n[nH]2)c(=O)c2cc(Br)c(C)nc21`, for which the MIC in [4] (setting [16]), in experiment [5] (setting [17]), in experiment [6] (setting [18]), in [7] (setting [19]), in experiment [8] (setting [20]) and in experiment [9] (setting [21]) was 3.68 to 6.3 µM (≈ 1.72 to 2.94 µg/mL) each time. In addition, the zone of inhibition at 10000 µg/mL in experiment [10], in [11], in experiment [12], in [13], in experiment [14] and in experiment [15] was 20 to 40 mm each time.
As to `CCn1cc(-c2nc(/N=C/c3ccc(OC)cc3)n[nH]2)c(=O)c2ccc(C)nc21`, the MIC entry in experiment [4], in experiment [5], in experiment [6], in experiment [7], in experiment [8] and in experiment [9] was “>=0.031 - 32 ug ml-1” in each case. In addition, the zone of inhibition at 10000 µg/mL in experiment [10], in [11], in experiment [12], in [13], in [14] and in experiment [15] was 20 to 40 mm in each case.
Turning to `COc1ccc2c(-c3ccccc3)cc(=O)n(Cc3nnc(S)n3N)c2c1`, the MIC in experiment [1], in [2] and in experiment [3] was 8 to 256 µg/mL (≈ 21.1 to 675 µM) each time.
For the molecule `CCn1cc(-c2nc(/N=C/c3ccc(F)cc3)n[nH]2)c(=O)c2ccc(C)nc21`, the MIC entry in experiment [4], in [5], in [6], in [7], in [8] and in experiment [9] was “>=0.031 - 32 ug ml-1” throughout. Besides, the zone of inhibition at 10000 µg/mL in experiment [10], in [11], in [12], in experiment [13], in experiment [14] and in [15] was 20 to 40 mm in each case.
Regarding `CCn1cc(-c2nc(NC(=O)c3ccc(F)cc3)n[nH]2)c(=O)c2cc(Br)c(C)nc21`, the MIC in [4] (setting [16]), in experiment [5] (setting [17]), in experiment [6] (setting [18]), in experiment [7] (setting [19]), in [8] (setting [20]) and in experiment [9] (setting [21]) was 3.68 to 6.3 µM (≈ 1.73 to 2.97 µg/mL) each time. Moreover, the zone of inhibition at 10000 µg/mL in experiment [10], in experiment [11], in experiment [12], in experiment [13], in experiment [14] and in experiment [15] was 20 to 40 mm each time.
With `COc1ccc2c(c1)c(-c1ccccc1)cc(=O)n2Cc1nnc(S)n1N`, the MIC in experiment [1], in experiment [2] and in experiment [3] was 8 to 256 µg/mL (≈ 21.1 to 675 µM) each time.
For the molecule `CCn1cc(-c2nc(NC(=O)c3ccc(Cl)cc3)n[nH]2)c(=O)c2ccc(C)nc21`, the MIC result in experiment [4], in [5], in [6], in experiment [7], in [8] and in experiment [9] was “>=0.031 - 32 ug ml-1” each time. The zone of inhibition at 10000 µg/mL in experiment [10], in [11], in experiment [12], in experiment [13], in experiment [14] and in experiment [15] was 20 to 40 mm in each case.
For the molecule `CCn1cc(-c2nc(/N=C/c3ccccc3)n[nH]2)c(=O)c2ccc(C)nc21`, the MIC result in experiment [4], in experiment [5], in experiment [6], in [7], in experiment [8] and in experiment [9] was “>=0.031 - 32 ug ml-1” in each case. The zone of inhibition at 10000 µg/mL in experiment [10], in [11], in experiment [12], in experiment [13], in [14] and in experiment [15] was 20 to 40 mm each time.
Regarding `CCn1cc(-c2nc(/N=C/c3ccc(Cl)cc3)n[nH]2)c(=O)c2ccc(C)nc21`, the MIC entry in experiment [4], in experiment [5], in [6], in experiment [7], in experiment [8] and in [9] was “>=0.031 - 32 ug ml-1” each time. Besides, the zone of inhibition at 10000 µg/mL in experiment [10], in experiment [11], in experiment [12], in experiment [13], in experiment [14] and in [15] was 20 to 40 mm each time.
Consider `Cc1ccc2c(-c3ccccc3)cc(=O)n(Cc3nnc(S)n3N)c2c1`, for which the MIC in experiment [1], in experiment [2] and in experiment [3] was 8 to 256 µg/mL (≈ 22 to 704 µM) throughout.
For the molecule `CCn1cc(-c2nc(NC(=O)CCl)n[nH]2)c(=O)c2cc(Br)c(C)nc21`, the MIC in experiment [4] (setting [16]), in experiment [5] (setting [17]), in experiment [6] (setting [18]), in experiment [7] (setting [19]), in [8] (setting [20]) and in experiment [9] (setting [21]) was 3.68 to 6.3 µM (≈ 1.57 to 2.68 µg/mL) each time. For the same molecule, the zone of inhibition at 10000 µg/mL in experiment [10], in experiment [11], in experiment [12], in [13], in experiment [14] and in [15] was 20 to 40 mm each time.
